Measured values taken from patent publication US9278914B2, “SARMs and method of use thereof” (UNIVERSITY OF TENNESSEE RESEARCH FOUNDATION, priority 2004, dated 2016).

System: castrated male Sprague-Dawley rats
Test: Anabolic and androgenic activity of SARM panel in castrated male rats, sc 1 mg/d for 14 d
Type: in vivo, rat
Conditions: 1 mg/d sc 14 d
Experimental: The in vivo pharmacological activity of each synthetic AR ligand (listed in Table 4, below) was examined in five male Sprague-Dawley rats weighing approximately 200 g. Animals were castrated via a scrotal incision under anesthesia 24 h before drug treatments and received daily sc injections of the compound of interest at a dose rate of 1 mg/d for 14 d. All compounds of interest were freshly dissolved in vehicle containing dimethylsulfoxide (5%, vol/vol) in polyethylene glycol 300 before dose administration. An additional two groups of animals with or without castration received vehicle only and served as castrated or intact control groups, respectively. Animals were killed at the end of the treatment. Plasma samples were collected and stored at −80° C. for future use. The ventral prostate, seminal vesicles, and levator ani muscle were removed, cleared of extraneous tissue, and weighed. All organ weights were normalized to body weight and compared. The weights of prostate and seminal vesicles were used to evaluate androgenic activity, whereas the levator ani muscle weight was used as a measure of anabolic activity. […] The results are graphically depicted in FIGS. 3 and 4.

Compound | Levator ani agonism | Ventral prostate weight | Levator ani weight versus intact control
C[C@](O)(COc1c(F)c(F)c(F)c(F)c1F)C(=O)Nc1ccc([N+](=O)[O-])c(C(F)(F)F)c1 [C-23] | > 75 % of intact control | < 25 % of intact control | 
C[C@](O)(COc1cc(F)c(F)cc1F)C(=O)Nc1ccc([N+](=O)[O-])c(C(F)(F)F)c1 [C-18] |  |  | same as or in excess of intact control
C[C@](O)(COc1ccc(F)cc1)C(=O)Nc1ccc([N+](=O)[O-])c(C(F)(F)F)c1 [S-1] | > 75 % of intact control | < 25 % of intact control | 
C[C@](O)(COc1ccc(F)c(Cl)c1)C(=O)Nc1ccc([N+](=O)[O-])c(C(F)(F)F)c1 [C-4] | > 75 % of intact control | < 25 % of intact control | 
C[C@](O)(COc1ccc([N+](=O)[O-])c(F)c1)C(=O)Nc1ccc([N+](=O)[O-])c(C(F)(F)F)c1 [C-11] |  |  | same as or in excess of intact control
C[C@](O)(COc1ccc(F)cc1F)C(=O)Nc1ccc([N+](=O)[O-])c(C(F)(F)F)c1 [C-1] | > 75 % of intact control | < 25 % of intact control | 
C[C@](O)(COc1ccc(Cl)cc1F)C(=O)Nc1ccc([N+](=O)[O-])c(C(F)(F)F)c1 [C-8] |  |  | same as or in excess of intact control
C[C@](O)(COc1ccc(Cl)c(F)c1)C(=O)Nc1ccc([N+](=O)[O-])c(C(F)(F)F)c1 [C-6] |  |  | same as or in excess of intact control
C[C@](O)(COc1cc(Cl)c(Cl)cc1Cl)C(=O)Nc1ccc([N+](=O)[O-])c(C(F)(F)F)c1 [C-22] | > 75 % of intact control | < 25 % of intact control | 
C[C@](O)(COc1ccc(F)c(F)c1)C(=O)Nc1ccc([N+](=O)[O-])c(C(F)(F)F)c1 [C-3] |  |  | same as or in excess of intact control
C[C@](O)(COc1ccc(Cl)c(Cl)c1)C(=O)Nc1ccc([N+](=O)[O-])c(C(F)(F)F)c1 [C-10] |  |  | same as or in excess of intact control
